Molecular target: T1, human Src kinase (Homo sapiens, UniProt P12931)
T1 construct: full length recombinant human Src kinase (from Upstate Biotechnology, cat. no. 14-117); purchased Upstate Biotechnology 14-117; host or cells: baculovirus-infected cells ('baculo viral cells')
Assay: Src inhibition assay (radioactivity-based assay A or spectrophotometric assay B)
Assay type: biochemical
From the text: The compounds of this invention can be evaluated as inhibitors of human Src kinase using either a radioactivity-based assay or spectrophotometric assay.
The compounds can be assayed as inhibitors of full length recombinant human Src kinase (from Upstate Biotechnology, cat. no. 14-117) expressed and purified from baculo viral cells. Src kinase activity is monitored by following the incorporation of ^33P from ATP into the tyrosine of a random poly Glu-Tyr polymer substrate of composition, Glu:Tyr=4:1 (Sigma, cat. no. P-0275). The following are the final concentrations of the assay components: 0.05 M HEPES, pH 7.6, 10 mM MgCl2, 2 mM DTT, 0.25 mg/ml BSA, 10 μM ATP (1-2 μCi ^33P-ATP per reaction), 5 mg/ml poly Glu-Tyr, and 1-2 units of recombinant human Src kinase. In a typical assay, all the reaction components with the exception of ATP are pre-mixed and aliquoted into assay plate wells. […] The plates are sealed and the amount of radioactivity associated with the filters is quantified on a TopCount scintillation counter. The radioactivity incorporated is plotted as a function of the inhibitor concentration. […]
In a typical assay, all the reaction components with the exception of ATP are pre-mixed and aliquoted into assay plate wells. […] The absorbance change at 340 nm with time, the rate of the reaction, is monitored on a molecular devices plate reader. […]

T1 sequence (P12931 whole entry): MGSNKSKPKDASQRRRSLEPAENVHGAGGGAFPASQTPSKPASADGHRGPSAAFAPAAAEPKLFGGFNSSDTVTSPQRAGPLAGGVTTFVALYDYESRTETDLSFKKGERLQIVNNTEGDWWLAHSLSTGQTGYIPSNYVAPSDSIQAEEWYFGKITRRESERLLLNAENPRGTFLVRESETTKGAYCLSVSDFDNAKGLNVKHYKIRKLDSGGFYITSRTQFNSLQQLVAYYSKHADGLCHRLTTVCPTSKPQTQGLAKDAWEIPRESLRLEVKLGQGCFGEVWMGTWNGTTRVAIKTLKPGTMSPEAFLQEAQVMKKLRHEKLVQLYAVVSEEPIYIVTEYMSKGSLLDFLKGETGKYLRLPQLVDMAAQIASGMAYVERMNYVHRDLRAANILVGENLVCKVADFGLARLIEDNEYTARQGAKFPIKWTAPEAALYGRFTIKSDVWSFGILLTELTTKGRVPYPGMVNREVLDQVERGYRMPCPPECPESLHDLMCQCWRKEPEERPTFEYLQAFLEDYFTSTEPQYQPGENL

Q: With `Cc1nc(-c2cccs2)sc1-c1ccnc(Nc2ccc(S(N)(=O)=O)cc2)n1` [IIc-22] as the compound, how does the Ki read?
A: < 100 nM

From patent publication US7361665B2, “Inhibitors of c-Jun N-terminal kinases (JNK) and other protein kinases” (Vertex Pharmaceuticals Incorporated, priority 2002, dated 2008)
